Tests used:
4T1 cells = assay: Cell viability assay (CCK-8) with verteporfin; assay type: cell-based, mouse; details: 24 hours
Experimental: (§1) Cells were seeded in a 96-well plate (30096; SPL Life Sciences, Pochon, South Korea) (5,000 cells/well) and treated with various doses of verteporfin in a serum-free medium for 24 hours. Cell viability was measured using Cell counting kit-8 (CCK-8) assay (CK04; Dojindo, Kumamoto, Japan), and the absorbance was measured at 450 nm using a microplate reader (SpectraMAX 340; Molecular Devices, San Jose, CA, USA).
(§2) To determine appropriate conditions for AI-TEV production, three types of cancer cells were treated with various doses of verteporfin in a serum-free medium and cell viability was assessed. E.G7-OVA cells were a derivative of EL4 mouse lymphoma cells carrying a complete copy of chicken ovalbumin (OVA) mRNA. Mouse oral cancer 2 (MOC2) cells represented an aggressive form of mouse oral squamous cell carcinoma, while 4T1 cells were triple-negative, highly invasive malignant mouse breast cancer cells. The lowest dose of verteporfin that induced effective cell death was 20 ng/ml for E.G7-OVA cells and 200 ng/ml for MOC2 and 4T1 cells and cell viability was approximately 80% for all cell types (FIGS. 2 and 3). The immunogenicity of the cell death was verified based on an increase in DAMPs after verteporfin treatment. […] Tumor cells were cultured in a serum-free medium for 24 hours with or without verteporfin to prepare AI-TEV or control TEV (C-TEV), respectively. […] TEVs expressed several EV markers such as tumor susceptibility genes 101 (TSG101), CD81, and Alix, but had no negative marker calnexin (FIGS. 12 and 13). Since verteporfin inhibited both autophagy and YAP, it was expected that there was a significant difference in a proteomic cargo between C-TEV and AI-TEV.

E.G7-OVA cells = assay: Cell viability assay (CCK-8) with verteporfin; assay type: cell-based, mouse; details: 24 hours
Experimental: as §1, §2

MOC2 cells = assay: Cell viability assay (CCK-8) with verteporfin; assay type: cell-based, mouse; details: 24 hours
Experimental: as §1, §2

cancer cells = assay: Immunogenic cell death markers: calreticulin flow cytometry, HSP70/HMGB1 release Western blotting; assay type: cell-based, mouse
Experimental: (§3) Protein concentrations of the samples were quantified using a DCTM protein assay kit (5000111, Bio-Rad, Hercules, CA, USA). The samples were dissolved using radioimmunoprecipitation buffer (9806S; Cell Signaling Technology, Danvers, MA, USA) and subjected to SDS-PAGE. The samples were loaded onto a sodium dodecyl sulfate polyacrylamide gel, separated by gel electrophoresis, and transferred to a nitrocellulose membrane. The membrane was blocked with 5% skim milk and incubated overnight at 4° C. with primary antibodies against the following: Tsg101 (sc-22774; Santa Cruz, Dallas, TX, USA), YAP (sc99010), CD81 (sc-166029), ALIX (sc-53540), calnexin (ab22595; Abcam, Cambridge, United Kingdom), OVA (0220-1682; Bio-Rad), HMGB1 (ab18256; Abcam), HSP70 (ab181606; Abcam), or B-actin (4967S; Cell Signaling Technology). After washing five times (5 min each) with Tris-buffered saline containing 0.05% Tween-20 (TBS/T), the membrane was incubated with anti-mouse peroxidase (1:3000; A4416; Sigma-Aldrich) or anti-rabbit peroxidase (1:3000; A0545) secondary antibody at 20 to 25° C. for 1 hour. The membrane was then incubated with an ECL substrate (1705061, Bio-Rad) and visualized using a ChemiDoc™ Touch Imaging System (Bio-Rad).
Cells were seeded in a 6-well plate (30006; SPL Life Sciences, 5×10^5 cells/well) and treated with verteporfin in a serum-free medium for 3 hours. The cells were fixed with 0.25% paraformaldehyde for 5 minutes at 4° C. and then blocked with 3% bovine serum albumin for 15 minutes at 4° C. A calreticulin antibody (ab2907; Abcam) was added to the samples and incubated at 4° C. for 45 minutes. […] Calreticulin expression on the cell membrane was evaluated using flow cytometry gating of PI-negative cells.
To determine appropriate conditions for AI-TEV production, three types of cancer cells were treated with various doses of verteporfin in a serum-free medium and cell viability was assessed. […]

YAP = biological target: T1, YAP (Mus musculus, UniProt P46938); assay: Western blotting of YAP after verteporfin treatment; assay type: cell-based; details: verteporfin 24 hours
T1 construct: endogenous in cells; host or cells: E.G7-OVA, MOC2 and 4T1 mouse cancer cells
Experimental: as §3
In addition, the migration ability of TEV-stimulated tumor cells was evaluated using a transwell migration assay. […] E.G7-OVA cells were also evaluated using the same protocol, but due to non-adherent characteristics, invasive cells were counted in the lower wells of a transwell chamber rather than on a membrane (FIGS. 18 and 19). […] Due to the aggressive and metastatic characteristics of 4T1 cells, a matrigel coating was added to the transwell membrane for the invasion assay. […] Finally, to confirm the attenuation of the tumor-promoting properties of AI-TEV in vivo, the efficacy as a therapeutic vaccine was evaluated in a mouse model. The therapeutic vaccine was another well-studied form of tumor vaccine designed to suppress tumor growth and induce long-term antitumor memory.

[1] = conditioned medium, 24 hours after verteporfin treatment

T1 sequence (P46938 whole entry): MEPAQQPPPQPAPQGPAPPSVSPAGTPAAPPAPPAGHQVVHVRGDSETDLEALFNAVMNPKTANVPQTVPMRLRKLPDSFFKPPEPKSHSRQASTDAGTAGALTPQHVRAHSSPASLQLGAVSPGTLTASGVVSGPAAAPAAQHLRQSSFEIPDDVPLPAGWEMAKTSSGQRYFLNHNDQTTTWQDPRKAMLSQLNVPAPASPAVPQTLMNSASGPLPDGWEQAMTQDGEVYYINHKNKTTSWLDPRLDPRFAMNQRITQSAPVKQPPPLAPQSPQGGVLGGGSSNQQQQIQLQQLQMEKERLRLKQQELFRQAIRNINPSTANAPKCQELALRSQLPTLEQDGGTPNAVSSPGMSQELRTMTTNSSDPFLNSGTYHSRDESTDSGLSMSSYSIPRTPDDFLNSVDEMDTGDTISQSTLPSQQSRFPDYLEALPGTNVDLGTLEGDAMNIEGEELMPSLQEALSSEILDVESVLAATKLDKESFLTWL

Substance: Verteporfin
- cell viability (4T1 cells; 200 ng/ml verteporfin): approximately 80%
- lowest dose of verteporfin that induced effective cell death (4T1 cells; serum-free medium): 200 ng/mL
- cell viability (E.G7-OVA cells; 20 ng/ml verteporfin): approximately 80%
- lowest dose of verteporfin that induced effective cell death (E.G7-OVA cells; serum-free medium): 20 ng/mL
- cell viability (MOC2 cells; 200 ng/ml verteporfin): approximately 80%
- lowest dose of verteporfin that induced effective cell death (MOC2 cells; serum-free medium): 200 ng/mL
- calreticulin expression (cancer cells; cancer cells after verteporfin treatment, cell surface): dose-dependent increase
- release of heat shock protein 70 (HSP70) (cancer cells; [1]): dose-dependent increase
- release of high mobility group box 1 (HMGB1) (cancer cells; [1]): dose-dependent increase
- YAP protein (YAP; 4T1 cells): YAP inhibition
- YAP protein content (YAP; E.G7-OVA cells): decreased
- YAP protein content (YAP; MOC2 cells): decreased

— patent publication US20250302933A1, “ATTENUATED YET IMMUNOGENICALLY POTENTIATED TUMOR EXTRACELLULAR VESICLE COMPOSITIONS AND USES THEREOF” (KOREA INSTITUTE OF SCIENCE AND TECHNOLOGY, priority 2024, published 2025)
